# Source: ChEMBL document CHEMBL6120970, “Discovery and Functional Characterization of a Potent, Selective, and Metabolically Stable PROTAC of the Protein Kinases DYRK1A and DYRK1B” (J Med Chem, 2024)
# Activity calls are given as the source filed them. The rule behind the calls is not given here.
# Key:
# [1] = biological target: T1, Protein cereblon/Dual specificity tyrosine-phosphorylation-regulated kinase 1B (Homo sapiens) (UniProt Q9Y463+Q96SW2); assay: PROTAC activity at CRBN/DYRK1B in HEK293 cells assessed as induction of degradation of DYRK1B at 100 nM pretreated with lenalidomide followed by compound addition and incubated for 8 hrs; assay type: cell-based
# [2] = biological target: T1, Protein cereblon/Dual specificity tyrosine-phosphorylation-regulated kinase 1B (Homo sapiens); assay: PROTAC activity at CRBN/DYRK1B in HEK293 cells assessed as induction of degradation of DYRK1B at 100 nM pretreated with bortezomib followed by compound addition and incubated for 8 hrs; assay type: cell-based
# [3] = biological target: T1, Protein cereblon/Dual specificity tyrosine-phosphorylation-regulated kinase 1B (Homo sapiens); assay: PROTAC activity at CRBN/DYRK1B in HEK293 cells assessed as induction of degradation of DYRK1B at 100 nM pretreated with leucettine-41 followed by compound addition and incubated for 8 hrs; assay type: cell-based
# [4] = biological target: T2, Protein cereblon/Dual specificity tyrosine-phosphorylation-regulated kinase 1A (Homo sapiens, UniProt Q13627+Q96SW2); assay: PROTAC activity at CRBN/DYRK1A in HEK293 cells assessed as induction of degradation of DYRK1A at 1 to 10000 nM incubated for 24 hrs in presence of CaNDY; assay type: cell-based; details: dose 1-10000 nM
# [5] = biological target: T2, Protein cereblon/Dual specificity tyrosine-phosphorylation-regulated kinase 1A; assay: PROTAC activity at CRBN/DYRK1A in human HeLa cells assessed as induction of degradation of DYRK1A at 100 nM incubated for 8 hrs; assay type: cell-based
# [6] = MRT in mouse at 10 mg/kg, ip administered as single dose; assay type: ADME, organism-based; details: in vivo
# [7] = biological target: T2, Protein cereblon/Dual specificity tyrosine-phosphorylation-regulated kinase 1A; assay: PROTAC activity at CRBN/DYRK1A in Flp-In-T-REx-293 cells overexpressing GFP-DYRK1A assessed as maximal reduction of GFP fluorescence at 1 uM measured upto 6 hrs by fluorescence based phase contrast microscopy analysis relative to control; assay type: cell-based
# [8] = Solubility of the compound in FeSSIF buffer; assay type: physicochemical
# [9] = MRT in mouse at 10 mg/kg, po administered as single dose; assay type: ADME, organism-based; details: in vivo
# HEK293 = assay: Effect on DCAF7 expression in HEK293 cells at 1 to 10000 nM; assay type: functional, cell-based; details: Homo sapiens, dose 1-10000 nM
# [10] = biological target: T2, Protein cereblon/Dual specificity tyrosine-phosphorylation-regulated kinase 1A; assay: PROTAC activity at CRBN/DYRK1A in SH-SY5Y cells assessed as induction of degradation of DYRK1A at 100 nM incubated for 24 hrs; assay type: cell-based
# SH-SY5Y = assay: Cytotoxicity against human SH-SY5Y cells assessed as reduction in cell viability at 100 nM measured upto 96 hrs by real-time cell analysis; assay type: functional, cell-based
# [11] = biological target: T2, Protein cereblon/Dual specificity tyrosine-phosphorylation-regulated kinase 1A; assay: PROTAC activity at CRBN/DYRK1A in HEK293 cells assessed as induction of degradation of DYRK1A at 100 nM preincubated for 24 to 72 hrs followed by washout and subsequent addition of medium containing compounds measured for 48 hrs; assay type: cell-based; details: time 72-120 hrs
# [12] = biological target: T2, Protein cereblon/Dual specificity tyrosine-phosphorylation-regulated kinase 1A; assay: PROTAC activity at CRBN/DYRK1A in human SH-SY5Y cells assessed as induction of degradation of DYRK1A at 100 nM incubated for 8 hrs relative to control; assay type: cell-based
# [13] = biological target: T2, Protein cereblon/Dual specificity tyrosine-phosphorylation-regulated kinase 1A; assay: Competitive binding affinity to CRBN/DYRK1A (unknown origin) assessed as association rate constant Kon; assay type: protein assay
# [14] = Metabolic stability in rat liver microsomes assessed as intrinsic clearance; assay type: ADME, Microsome; details: read-out: CLH
# [15] = biological target: T2, Protein cereblon/Dual specificity tyrosine-phosphorylation-regulated kinase 1A; assay: PROTAC activity at CRBN/DYRK1A in HEK293 cells assessed as induction of degradation of DYRK1A at 100 nM pretreated with leucettine-41 followed by compound addition and incubated for 8 hrs; assay type: cell-based
# [16] = Permeability of the compound in human Caco-2 cells across apical to basolateral side; assay type: ADME, cell-based; details: read-out: permeability
# [17] = Plasma protein binding (unknown origin); assay type: ADME, cell-free; details: read-out: PPB
# [18] = AUClast in mouse at 1 mg/kg, iv administered as single dose; assay type: ADME, organism-based; details: in vivo
# [19] = Cmax in mouse at 10 mg/kg, ip administered as single dose; assay type: ADME, organism-based; details: in vivo
# [20] = biological target: T1, Protein cereblon/Dual specificity tyrosine-phosphorylation-regulated kinase 1B (Homo sapiens); assay: PROTAC activity at CRBN/DYRK1B in HEK293 cells overexpressing DYRK1B-p69 assessed as induction of degradation of DYRK1B at 1 uM measured after 24 hrs by Western blot analysis; assay type: cell-based
# [21] = biological target: T2, Protein cereblon/Dual specificity tyrosine-phosphorylation-regulated kinase 1A; assay: PROTAC activity at CRBN/DYRK1A in HEK293 cells assessed as induction of degradation of DYRK1A by measuring maximum efficacy at 1 to 10000 nM incubated for 24 hrs relative to control; assay type: cell-based; details: dose 1-10000 nM
# [22] = Metabolic stability in mouse liver microsomes assessed as intrinsic clearance; assay type: ADME, Microsome; details: read-out: CLH
# [23] = biological target: Protein cereblon/Dual specificity tyrosine-phosphorylation-regulated kinase 1B (Homo sapiens, UniProt Q96SW2+Q9Y463); assay: Competitive binding affinity to CRBN/DYRK1B (unknown origin) assessed as dissociation constant; assay type: protein assay
# [24] = biological target: T2, Protein cereblon/Dual specificity tyrosine-phosphorylation-regulated kinase 1A; assay: PROTAC activity at CRBN/DYRK1A in Flp-In-T-REx-293 cells overexpressing GFP-DYRK1A assessed as half life at 1 uM measured upto 6 hrs by fluorescence based phase contrast microscopy analysis; assay type: cell-based
# [25] = AUC last in mouse at 10 mg/kg, po administered as single dose; assay type: ADME, organism-based; details: in vivo
# [26] = Bioavailability in mouse at 10 mg/kg, ip administered as single dose; assay type: ADME, organism-based; details: in vivo
# [27] = biological target: T2, Protein cereblon/Dual specificity tyrosine-phosphorylation-regulated kinase 1A; assay: PROTAC activity at CRBN/HibiT-tagged DYRK1A in Flp-In-T-REx-293 cells assessed as induction of degradation of DYRK1A by measuring maximum efficacy at 1 uM measured after 24 hrs by NanoBiT luciferase assay relative to control; assay type: cell-based
# [28] = biological target: T1, Protein cereblon/Dual specificity tyrosine-phosphorylation-regulated kinase 1B (Homo sapiens); assay: PROTAC activity at CRBN/DYRK1B in HEK293 cells assessed as induction of degradation of DYRK1B at 100 nM pretreated with CB-5083 followed by compound addition and incubated for 8 hrs; assay type: cell-based
# [29] = Metabolic stability in mouse liver microsomes assessed as half life; assay type: ADME, Microsome
# [30] = Half life in mouse at 1 mg/kg, iv administered as single dose; assay type: ADME, organism-based; details: in vivo
# [31] = Tmax in mouse at 10 mg/kg, po administered as single dose; assay type: ADME, organism-based; details: in vivo
# [32] = biological target: T2, Protein cereblon/Dual specificity tyrosine-phosphorylation-regulated kinase 1A; assay: PROTAC activity at CRBN/DYRK1A in HEK293 cells assessed as induction of degradation of DYRK1A at 100 nM incubated for 24 hrs; assay type: cell-based
# [33] = biological target: T2, Protein cereblon/Dual specificity tyrosine-phosphorylation-regulated kinase 1A; assay: PROTAC activity at CRBN/DYRK1A in human A549 cells assessed as induction of degradation of DYRK1A at 100 nM incubated for 8 hrs relative to control; assay type: cell-based
# [34] = Half life in mouse at 10 mg/kg, ip administered as single dose; assay type: ADME, organism-based; details: in vivo
# [35] = biological target: T1, Protein cereblon/Dual specificity tyrosine-phosphorylation-regulated kinase 1B (Homo sapiens); assay: PROTAC activity at CRBN/DYRK1B in SH-SY5Y cells assessed as induction of degradation of DYRK1B at 100 nM incubated for 24 hrs; assay type: cell-based
# [36] = Oral availability in mouse at 10 mg/kg administered as single dose; assay type: ADME, organism-based; details: in vivo
# [37] = biological target: T2, Protein cereblon/Dual specificity tyrosine-phosphorylation-regulated kinase 1A; assay: PROTAC activity at CRBN/DYRK1A in HEK293 cells assessed as induction of degradation of DYRK1A at 1 to 10000 nM incubated for 24 hrs in presence of leucettine-41; assay type: cell-based; details: dose 1-10000 nM
# [38] = Cmax in mouse at 10 mg/kg, po administered as single dose; assay type: ADME, organism-based; details: in vivo
compound,measurement,setting,value
Cc1nc2ccc(-c3ccnc(N)c3)nc2n1-c1ccc(N2CCN(CC#Cc3ccc(N4CCC(C(=O)N5CCC(n6cc(CNc7cccc8c7C(=O)N(C7CCC(=O)NC7=O)C8=O)cn6)CC5)CC4)nc3)CC2)c(F)c1 (stereo not given),Activity,[1],inactive
same,Activity,[2],inactive
same,Activity,[3],inactive
same,Activity,[4],inactive
same,Activity,[5],inactive
same,MRT,[6],5.77 h
same,Emax,[7],98%
same,solubility,[8],2.09 µM
same,MRT,[9],2.51 h
same,Activity,HEK293,inactive
same,Activity,[10],Active
same,Activity,SH-SY5Y,Active
same,Activity,[11],Active
same,Activity,[12],100%
same,K,[13],1.83 10^5/M/s
same,CLint scaled,[14],14 mL/min/kg
same,Activity,[15],inactive
same,Papp A→B,[16],< 0.27 ×10⁻⁶ cm/s
same,fraction unbound,[17],< 0.0062
same,AUC(0-t),[18],2460 ng·h/mL
same,Cmax,[19],8130 ng/mL
same,Activity,[20],Active
same,Emax,[21],90%
same,CLint scaled,[22],3.1 mL/min/kg
same,Kd,[23],16 nM
same,T1/2,[24],0.95 h
same,AUC(0-t),[25],56 ng·h/mL
same,bioavailability,[26],109%
same,Emax,[27],84%
same,Activity,[28],inactive
same,half-life,[29],7.38 h
same,half-life,[30],3.33 h
same,Tmax,[31],0.5 h
same,Activity,[32],Active
same,Activity,[33],100%
same,half-life,[34],4.75 h
same,Activity,[35],Active
same,bioavailability,[36],0.25%
same,Activity,[37],inactive
same,Cmax,[38],18.5 ng/mL
